In patent US8883758B2, “3,5-disubstituted and 3,5,7-trisubstituted-3H-oxazolo and 3H-thiazolo[4,5-d]pyrimidin-2-one compounds and prodrugs thereof” (Anadys Pharmaceuticals, Inc., priority 2004, dated 2014):

test system: fresh cynomolgus monkey hepatocytes; assay: Metabolism of Formula I prodrugs to 6-oxy metabolites in fresh cynomolgus monkey hepatocytes (LC/MS/MS); assay type: in vitro ADME
Method: A study was undertaken to evaluate the metabolic stability of Formula I compounds 14, 15, 13, 114, 30, 103, 67, 65, and 76 in the presence of fresh cynomolgus monkey hepatocytes and monitor the formation of 6-oxy metabolites, i.e., Formula II compounds and other compounds of the invention. For comparison, the metabolic stability of famciclovir was also assessed.
Fresh cynomolgus monkey hepatocyte suspension (Lot #: Cy141) was purchased from CellzDirect (Tucson, Ariz.). Hepatocyte Incubation Medium (serum-free, sterile) was purchased from In Vitro Technologies (Baltimore, Md.).
The cynomolgus monkey hepatocyte suspension was prepared from fresh cynomolgus monkey hepatocytes in hepatocyte incubation medium at the concentration of 1.25 million cells/mL. The final incubation concentration (after test article addition) was 1.0 million cells/mL.
Existing 100 mM stock solutions in DMSO were used. The concentrations of the test articles were checked using UV-vis microplate reader. Correction coefficients were determined using the absorbance of a freshly prepared DMSO stock of 122.
Reaction suspensions were prepared in removable 96-well tubes, each containing 320 μL of fresh cynomolgus monkey hepatocyte suspension at the density of 1.25 million cells per mL and 40 μL of hepatocyte incubation medium. The above mixtures were pre-incubated open at 37° C., 95% humidity and 5% CO2 for 30 minutes. Reactions were initiated by the addition of 40 μL of test article at 10× concentration to each tube to achieve the final concentrations of 50 μM for the test article(s) and 1 million/mL cell density. The reaction suspension in each tube was mixed by inverting the tube several times. Aliquots of 50 μL from each reaction suspension were distributed into six additional removable 96-well tubes (one tube per time point taken at 15, 30, 45, 60, 90, and 120 minutes). The open tubes were incubated at 37° C. under 95% humidity and 5% CO2.
At predetermined time points, reactions were terminated by the addition of 150 μL of the stop solution to each tube containing 50 μL of the reaction suspension. The composition of the stop solution was the following: 15 mL of acetonitrile (containing 1 μg/mL nebularine as an internal standard and 0.1% formic acid) combined with 1 mL water.
The calibration curves were prepared in the following way. To 80 μL of cell suspension (at the cell density of 1.25 million/mL) 10 μL of hepatocyte incubation medium and 10 μL of the appropriate concentration of the compound in hepatocyte incubation medium were added Immediately following the compound addition, 300 μL of the stop solution (see above) was added.
All quenched samples were kept on wet ice until they were processed for analysis. Then they were mixed using a bench top Multi-Tube Vortexer (VWR Scientific Products) for approximately 30 seconds, and centrifuged at 4,000 rpm (3,220 rcf) for 10 minutes at 4° C. Clear supernatant (100 μl) was transferred into a clean deep well 96-well plate, evaporated to dryness under nitrogen, reconstituted in 100 μL of 90:10 water:acetonitrile, and analyzed for the parent form and metabolites of the test article using an appropriate LC/MS/MS method.
The compounds were quantified on an API3000 LC/MS/MS instrument in the ESI-Positive MRM (multiple reaction monitoring) mode.

SMILES | Metabolism to the corresponding 6-oxy metabolite
Nc1ncc2sc(=O)n(C3O[C@H](CO)[C@@H](CO)[C@H]3O)c2n1 (stereo partly drawn) [Compound 65, (3′S)-5-Amino-3-(3′-deoxy-3′-hydroxymethyl-β-D-ribofuranosyl)-3H-thiazolo[4,5-d]pyrimidin-2-one] | metabolized to yield the corresponding 6-oxy metabolites
C=C1[C@@H](O)[C@H](n2c(=O)sc3cnc(N)nc32)O[C@@H]1CO [Compound 76, 5-Amino-3-(3′-deoxy-3′-methylidene-β-D-ribofuranosyl)-3H-thiazolo[4,5-d]pyrimidin-2-one] | metabolized to yield the corresponding 6-oxy metabolites
C[C@@]1(O)[C@@H](CO)O[C@@H](n2c(=O)sc3cnc(N)nc32)[C@@H]1O [Compound 30, 5-Amino-3-(3′-methyl-β-D-ribofuransyl)-3H-thiazolo[4,5-d]pyrimidin-2-one] | metabolized to yield the corresponding 6-oxy metabolites
CC(=O)OC[C@@H]1C[C@@H](OC(C)=O)[C@H](n2c(=O)sc3cnc(N)nc32)O1 [Compound 14, 5-Amino-3-(2′,5′-di-O-acetyl-3′-deoxy-β-D-ribofuranosyl)-3H-thiazolo[4,5-d]pyrimidin-2-one] | metabolized to yield the corresponding 6-oxy metabolites
CC(=O)OC[C@H]1O[C@@H](n2c(=O)sc3cnc(N)nc32)[C@H](OC(C)=O)[C@@]1(C)OC(C)=O [Compound 103, 5-Amino-3-(3′-methyl, 2′,3′,5′-tri-O-acetyl-β-D-xylofuranosyl)-3H-thiazolo[4,5-d]pyrimidin-2-one] | metabolized to yield the corresponding 6-oxy metabolites
CC(=O)OC[C@H]1O[C@@H](n2c(=O)sc3cnc(N)nc32)[C@H](OC(C)=O)[C@H]1OC(C)=O [Compound 114, 5-Amino-3-(2′,3′,5′-tri-O-acetyl-β-D-xylofuranosyl)-3H-thiazolo[4,5-d]pyrimidin-2-one] | metabolized to yield the corresponding 6-oxy metabolites
CC(=O)O[C@@H]1C[C@@H](CO)O[C@H]1n1c(=O)sc2cnc(N)nc21 [Compound 15, 5-Amino-3-(2′-O-acetyl-3′-deoxy-β-D-ribofuranosyl)-3H-thiazolo[4,5-d]pyrimidin-2-one] | metabolized to yield the corresponding 6-oxy metabolites
CC(=O)OCC[C@H]1O[C@@H](n2c(=O)sc3cnc(N)nc32)[C@H](OC(C)=O)[C@@H]1OC(C)=O [Compound 67, 5-Amino-3-(5′-O-acetoxymethyl-2′,3′-di-O-acetyl-5′-deoxy-β-D-ribofuranosyl)-3H-thiazolo[4,5-d]pyrimidin-2-one] | metabolized to yield the corresponding 6-oxy metabolites
CC(=O)OCC(CCn1cnc2cnc(N)nc21)COC(C)=O [Famciclovir, reference compound] | metabolized to yield the corresponding 6-oxy metabolites
Nc1ncc2sc(=O)n([C@@H]3O[C@H](CO)C[C@H]3O)c2n1 [Compound 13, 5-Amino-3-(3′-deoxy-β-D-ribofuranosyl)-3H-thiazolo[4,5-d]pyrimidin-2-one] | metabolized to yield the corresponding 6-oxy metabolites
